Laboratory results taken from US20260373176A1, “Compounds Targeting KRAS G12D Mutations and Their Uses” (InnoPharmaScreen Inc., priority 2023, published 2026).
Entries after “also recorded” stand apart in the source; their conditions may differ.

Key:
KRAS = settings: PROTAC recruiting CRBN; cited from earlier work
KRAS G12D [1] = biological target: T1, KRAS G12D (Homo sapiens, UniProt P01116+Q96SW2, G12D); assay: Western blot analysis of KRAS G12D degradation in cells; assay type: cell-based; design: degradation by molecular glue via endogenous CRBN, western blot
Method: 2.0×10^5 cells were seeded into 6-well plates (SPL; cat. no. 30006). The next day, media was removed, and cells were treated with 0, 1, 5, 10, 50, 100 μM KRAS-MG in serum free media. For 24 h, 48 h, and 72 h. Cells were lysed using a RIPA buffer and clarified at 21,000×g for 15 min at 4 °C. Protein concentration of the supernatant was measured using a BCA reagent. (Thermofisher; cat. no. 23225) incubated at 37 °C for 30 mins. For each sample, equal amounts of protein were denatured and fractionated by Novex Wedge Well 4-20% Tris-Glycine Mini Gels (Invitrogen cat. no. XP04205BOX), and then transferred onto a Immobilon-PVDF Membrane membranes (Merck, cat. no. IPVH00010) at 80 V for 1 h at 4 °C. Membranes were blocked by placing them in a 5% BSA in Tris-buffered saline with Tween-20 (TBST; 20 mM Tris, 150 mM NaCl, 0.1% Tween-20) for 1 h. Membranes were then incubated overnight at 4 °C with primary antibodies against KRAS (1:1000, invitrogen: #703345), GAPDH (1:2000, Cell signaling #2118). After three washes with TBST, membranes were incubated with the appropriate HRP-conjugated secondary antibodies (1:1000, KwikQuant #R1006) for 1 hour RT. After three washing. Detection of bound antibodies was carried out using ECL reagents (KwikQuant #R1004) and bands were detected by ATTO Luminograph III Lite. The intensity of the KRAS band was quantified using ImageJ software and normalized to the intensity of GAPDH band.

KRAS G12D [2] = assay: KRAS G12D degradation in AsPC-1 xenograft mice; assay type: in vivo, mouse (BALB/c nu/nu nude mice); settings: 80 mpk BiW, oral; at 28 days after treatment
CRBN-KRAS G12D = biological target: T2, CRBN-KRAS G12D (Homo sapiens, UniProt P01116+Q96SW2, G12D); assay: SPR ternary complex formation assay of CRBN-KRAS G12D-MG (1:1 Langmuir binding model)
T2 construct: His-tag (for the complex); purchased Abcam (KRAS G12D); R&D systems (CUL4A/RBX1/DDB1/CRBN complex) ab268712; E3-650
Method: (§1) CaCo-2 (ATTC), H1975 (CRL-5908) and LS-180 (CCL-187) cells were obtained from ATCC, expanded immediately, and frozen down. Vials were thawed and used within 20 passages. SNU-407, SNU-1033 and SK-LU-1 cells were obtained from Korean Cell Line Bank, expanded immediately, and frozen down. Vials were thawed and used within 20 passages. Caco-2 cells were cultured in MEM (Welgene, LM007-07) supplemented with 10% FBS GenDEPOT; cat. no. F0900-050) and 1% Antibiotic Antimycotic solution (Welgene; cat. No. LS203-01). H1975, SNU-407, SNU-1033 cells were cultured in RPMI (Welgene, LM011-03) supplemented with 10% FBS GenDEPOT; cat. no. F0900-050) and 1% Antibiotic Antimycotic solution (Welgene; cat. No. LS203-01). SK-LU-1 and LS-180 cells were cultured in DMEM (Welgene, LM001-05) supplemented with 10% FBS GenDEPOT; cat. no. F0900-050) and 1% Antibiotic Antimycotic solution (Welgene; cat. No. LS203-01). PBS (Welgene; cat. no. LB004-02) was used to wash cells and 0.25% Trypsin-EDTA (Welgene; cat. no. LS015-01) was used to detach cells for passaging. KRAS Mouse Monoclonal Antibody was purchased from Origene (cat. no. TA801672), anti-3-actin was purchased from AB Frontier (cat. no. LF-MA20055). […]
The injection was performed at a flow rate and for a contact time according to the Korea University Stem cell Lab guidelines. […] The sensorgrams were recorded using the embedded software imSPR-mini v 1.1.0. […]

[3] = Toxicity in AsPC-1 xenograft mice (body weight, food intake, blood count, blood chemistry); assay type: in vivo, mouse (BALB/c nu/nu nude mice)
Method: Experimental procedures that involved animals and their care were conducted in compliance with the Guide for the Care and Use of Laboratory Animals15 and ARRIVE guidelines. Animal experiments were approved by Animal Care and Use Committee of Woojung center for phenogenomics (Hwasung, Korea) and conducted at WoojungBio Inc. (Hwasung, Korea) in accordance with the guidelines. BA LB/C (nu/nu) nude mice of both genders aged 6 weeks and weighing 16-22 g were purchased from Nara biotech Co, Ltd. (Seoul, Korea). The mice were housed in a pathogen-free environment at a temperature of 25 °C and relative air humidity between 45 and 50%. All surgeries were performed in a sterile environment. To establish subcutaneous […] tumors, 1×10^6 AsPC-1 cells/100 μL were subcutaneously injected into the left groin region of BALB/nu nu male mice (7 weeks old; Nara Biotech Inc., Seoul, Korea). Immediately before treatment, IPS-06061 was dissolved in DMSO and then diluted tenfold in normal saline. […] Tumor growth rate was recorded on day 7, 14, 21, and 28 by measuring the major and minor axes with a digital caliper. […]
(§2) To confirm the anti-tumor effect of IPS-06061, we employed a xenograft mouse model implanting AsPC-1 pancreatic cancer cells. […] Toxicity was assessed by measuring body weight, food intake, complete blood cell count, and biochemical blood chemistry.

[4] = tested on: AsPC-1 pancreatic cancer cells; assay: In vivo tumor growth, AsPC-1 xenograft mice; design: species or system mouse (BALB/c nu/nu nude mice)
Method: We have conducted the in vivo tumor growth assay using AsPC-1 pancreatic cancer cell-implanted xenograft animals by requesting Eins solution (Gwanggyo, Korea).
Experimental procedures that involved animals and their care were conducted in compliance with the Guide for the Care and Use of Laboratory Animals15 and ARRIVE guidelines. Animal experiments were approved by Animal Care and Use Committee of Woojung center for phenogenomics (Hwasung, Korea) and conducted at WoojungBio Inc. (Hwasung, Korea) in accordance with the guidelines. BA LB/C (nu/nu) nude mice of both genders aged 6 weeks and weighing 16-22 g were purchased from Nara biotech Co, Ltd. (Seoul, Korea). The mice were housed in a pathogen-free environment at a temperature of 25 °C and relative air humidity between 45 and 50%. All surgeries were performed in a sterile environment. To establish subcutaneous […] tumors, 1×10^6 AsPC-1 cells/100 μL were subcutaneously injected into the left groin region of BALB/nu nu male mice (7 weeks old; Nara Biotech Inc., Seoul, Korea). Immediately before treatment, IPS-06061 was dissolved in DMSO and then diluted tenfold in normal saline. Tumor-baring mice in vehicle control, IPS-06061 (low), and IPS-06061 (high) groups were injected intravenously with vehicle (1:10 DMSO to saline, v/v), 30 mg/kg IPS-06061 solution, or 80 mg/kg IPS-06061 solution, respectively, twice a week for 28 days (n=10 mice per major group) (FIG. 11). Tumor growth rate was recorded on day 7, 14, 21, and 28 by measuring the major and minor axes with a digital caliper. Measurements were transformed into tumor volumes using the formula tumor volume (mm^3)=major axis×minor axis^2×0.5. Tumor, liver, and kidneys were collected from major groups on day 28 within 3 h of the last injection and weighed. The tumors were subsequently frozen in liquid nitrogen and stored at −80 °C until homogenization for western blotting.
as §2, with “cells. After the tumor volume had grown to approximately 100 mm^3, IPS-06061 was administered […] twice a week for 28 days.” for “cells.”

KRAS WT = biological target: T3, KRAS WT (Homo sapiens, UniProt P01116+Q96SW2); assay: Western blot analysis of KRAS WT degradation in Caco-2 cells; assay type: cell-based
T3 construct: molecular glue degradation via endogenous CRBN, western blot
Method: as §1, with “LS203-01).” for “LS203-01). PBS (Welgene; cat. no. LB004-02) was used to wash cells and 0.25% Trypsin-EDTA (Welgene; cat. no. LS015-01) was used to detach cells for passaging. KRAS Mouse Monoclonal Antibody was purchased from Origene (cat. no. TA801672), anti-3-actin was purchased from AB Frontier (cat. no. LF-MA20055).”
2.0×10^5 cells were seeded into 6-well plates (SPL; cat. no. 30006). […] Protein concentration of the supernatant was measured using a BCA reagent. […] Detection of bound antibodies was carried out using ECL reagents (KwikQuant #R1004) and bands were detected by ATTO Luminograph III Lite. The intensity of the KRAS band was quantified using ImageJ software and normalized to the intensity of GAPDH band.

KRAS G12D [5] = biological target: T1, KRAS G12D; assay: IPS-Chip PPIExplorer solid-phase cell-free ubiquitination of KRAS G12D using CRBN; assay type: biochemical; design: His-tagged CUL4A/RBX1/DDB1/CRBN E3; UBE1 (E1) and UbcH5a/UBE2D1 (E2) as helper enzymes; settings: in the presence of CRBN, E1, E2, ubiquitin and ATP
Method: as §1, with “passaging.” for “passaging. KRAS Mouse Monoclonal Antibody was purchased from Origene (cat. no. TA801672), anti-3-actin was purchased from AB Frontier (cat. no. LF-MA20055).”
The 0.2 mg/ml 6× His tag monoclonal antibody was diluted in 30% glycerol in 1×PBS, pH 7.4, was spotted onto the IPS-Chip for 16 h at 4 °C. […] To detect polyubiquitination signals, the chip was scanned using a GenePix Pro 6.0 (Axon Instruments, CA, USA), and the data analyzed with an Origin 6.1 (Originlab, MA, USA).

Question: Which “poly-ubiquitination and degradation of KRAS” value (KRAS) does the source give for `C=C(F)C(=O)N1CCN(c2nc(OC[C@@H]3CCCN3CCCOCCC(=O)N[C@H](C(=O)N3C[C@H](O)C[C@H]3C(=O)NCc3ccc(-c4scnc4C)cc3)C(C)(C)C)nc3c2CCN(c2cccc4cccc(Cl)c24)C3)C[C@@H]1CC#N` [LC2] here?
Answer: poly-ubiquitination of KRAS, thus proteosome-mediated degradation of the protein

Question: What does the source list for `CCOC(=O)[C@H](CCc1ccccc1)N[C@@H](C)C(=O)c1ccccc1` [IPS-06061, ethyl (2S)-2-((1-oxo-1-phenylpropan-2-yl)amino)-4-phenylbutanoate]?
Answer: Dmax (KRAS G12D [1]; ASPC1, KRAS G12D degradation, AsPC-1 cells): > 90%; DC50 (KRAS G12D [1]; KRAS G12D degradation, AsPC-1 cells): < 500 nM; degradation of KRAS G12D (KRAS G12D [1]; western blot, AsPC-1 pancreatic cancer cells): Time-dependent degradation of KRAS G12D; also recorded: degrades KRAS G12D mutant; Maximum degradation (KRAS G12D [2]): > 75%; ternary complex formation / binding to KRAS G12D (CRBN-KRAS G12D; CRBN + KRAS G12D): binds specifically to KRAS G12D, forming a ternary complex; selectivity for KRAS G12D over KRAS WT (CRBN-KRAS G12D; KRAS G12D vs KRAS WT): High selective for KRAS G12D; body weight effect ([3]; AsPC-1 xenograft mice, twice a week, 28 days): No body weight effect; decreases in weight and food intake ([3]; oral, twice a week for 28 days, vs vehicle group): such differences were not noted; TGI ([4]; 80 mpk BiW, oral, AsPC-1 xenograft mice): ~ 100%; anti-cancer activity ([4]; AsPC-1 xenograft mice): strong anti-cancer activity; mean tumor growth vs vehicle ([4]; high dose 80 mpk, oral, twice a week for 28 days): remarkably reduced; tumor weight ([4]; oral, twice a week for 28 days): significantly reduced tumor weight; effect on degradation of KRAS WT (KRAS WT): no effect on the degradation of KRAS WT; also recorded: without affecting KRAS Wild Type; ubiquitination of KRAS G12D (KRAS G12D [5]): promoted the ubiquitination of KRAS G12D in a dose-dependent manner
